Source: ChEMBL document CHEMBL6087462, “Cuminaldehyde Potentiates Antiproteolytic Peptide Efficacy via Parallel Pathways of Enhanced Inner Membrane-Damaging Activity and Inhibition of Bacterial Energy Metabolism” (J Med Chem, 2025)

Assays:
Salmonella typhimurium [1] = test: Antimicrobial activity against Salmonella typhimurium ATCC 7731 assessed as reduction in microbial growth in presence of cuminaldehyde by CLSI based broth microdilution method; format: functional, Salmonella enterica subsp. enterica serovar Typhimurium; details: Salmonella enterica
Escherichia coli [2] = test: Synergistic antimicrobial activity against Escherichia coli 078 assessed as fractional inhibitory concentration index in presence of thymol by checkerboard broth microdilution assay; format: functional, 78
Enterococcus faecalis [3] = test: Synergistic antimicrobial activity against Enterococcus faecalis 29212 assessed as fractional inhibitory concentration index in presence of thymol by checkerboard broth microdilution assay; format: functional
Staphylococcus aureus [4] = test: Synergistic antimicrobial activity against Staphylococcus aureus 25923 assessed as fractional inhibitory concentration index in presence of citronellal by checkerboard broth microdilution assay; format: functional
Salmonella typhimurium [5] = test: Synergistic antimicrobial activity against Salmonella typhimurium 14028 assessed as fractional inhibitory concentration index in presence of thymol by checkerboard broth microdilution assay; format: functional, Salmonella enterica subsp. enterica serovar Typhimurium
Escherichia coli [6] = test: Synergistic antimicrobial activity against Escherichia coli K99 assessed as fractional inhibitory concentration index in presence of citral by checkerboard broth microdilution assay; format: functional
Enterococcus faecalis [7] = test: Synergistic antimicrobial activity against Enterococcus faecalis 29212 assessed as fractional inhibitory concentration index in presence of cuminaldehyde by checkerboard broth microdilution assay; format: functional
Staphylococcus aureus [8] = test: Synergistic antimicrobial activity against Staphylococcus aureus ATCC 29213 assessed as fractional inhibitory concentration by checkerboard broth microdilution assay; format: functional
Enterococcus faecalis [9] = test: Antimicrobial activity against Enterococcus faecalis ATCC 29212 assessed as reduction in microbial growth in presence of cuminaldehyde by CLSI based broth microdilution method; format: functional
Escherichia coli [10] = test: Antimicrobial activity against Escherichia coli 078 assessed as reduction in microbial growth in presence of cuminaldehyde by CLSI based broth microdilution method; format: functional; details: 78
Salmonella typhimurium [11] = test: Synergistic antimicrobial activity against Salmonella typhimurium 7731 assessed as fractional inhibitory concentration index in presence of carvacrol by checkerboard broth microdilution assay; format: functional, Salmonella enterica subsp. enterica serovar Typhimurium
Staphylococcus aureus [12] = test: Antimicrobial activity against Staphylococcus aureus ATCC 25923 assessed as reduction in microbial growth by CLSI based broth microdilution method; format: functional
Salmonella typhimurium [13] = test: Synergistic antimicrobial activity against Salmonella typhimurium 7731 assessed as fractional inhibitory concentration index in presence of perillaldehyde by checkerboard broth microdilution assay; format: functional, Salmonella enterica subsp. enterica serovar Typhimurium
Escherichia coli [14] = test: Synergistic antimicrobial activity against Escherichia coli K88 assessed as fractional inhibitory concentration index in presence of cuminaldehyde by checkerboard broth microdilution assay; format: functional
Escherichia coli [15] = test: Synergistic antimicrobial activity against Escherichia coli 078 assessed as fractional inhibitory concentration index in presence of carvacrol by checkerboard broth microdilution assay; format: functional, 78
[16] = tested on: Staphylococcus epidermidis; test: Antimicrobial activity against Staphylococcus epidermidis ATCC 12228 assessed as reduction in microbial growth by CLSI based broth microdilution method; format: functional
Staphylococcus aureus [17] = test: Synergistic antimicrobial activity against Staphylococcus aureus 25923 assessed as fractional inhibitory concentration index in presence of perillaldehyde by checkerboard broth microdilution assay; format: functional
Escherichia coli [18] = test: Antimicrobial activity against Escherichia coli K88 assessed as reduction in microbial growth in presence of cuminaldehyde by CLSI based broth microdilution method; format: functional
[19] = tested on: Staphylococcus epidermidis; test: Synergistic antimicrobial activity against Staphylococcus epidermidis ATCC 12228 assessed as fractional inhibitory concentration by checkerboard broth microdilution assay; format: functional
Pseudomonas aeruginosa [20] = test: Synergistic antimicrobial activity against Pseudomonas aeruginosa 27853 assessed as fractional inhibitory concentration index in presence of perillaldehyde by checkerboard broth microdilution assay; format: functional
Escherichia coli [21] = test: Antimicrobial activity against Escherichia coli UB 1005 assessed as reduction in microbial growth by CLSI based broth microdilution method; format: functional
Staphylococcus aureus [22] = test: Synergistic antimicrobial activity against Staphylococcus aureus 25923 assessed as fractional inhibitory concentration index in presence of thymol by checkerboard broth microdilution assay; format: functional
Salmonella typhimurium [23] = test: Antimicrobial activity against Salmonella typhimurium ATCC 7731 assessed as reduction in microbial growth by CLSI based broth microdilution method; format: functional, Salmonella enterica subsp. enterica serovar Typhimurium; details: Salmonella enterica
Escherichia coli [24] = test: Synergistic antimicrobial activity against Escherichia coli UB1005 assessed as fractional inhibitory concentration index in presence of citral by checkerboard broth microdilution assay; format: functional
Pseudomonas aeruginosa [25] = test: Synergistic antimicrobial activity against Pseudomonas aeruginosa 27853 assessed as fractional inhibitory concentration index in presence of thymol by checkerboard broth microdilution assay; format: functional
[26] = tested on: Staphylococcus epidermidis; test: Antimicrobial activity against Staphylococcus epidermidis ATCC 12228 assessed as reduction in microbial growth in presence of cuminaldehyde by CLSI based broth microdilution method; format: functional
Escherichia coli [27] = test: Antimicrobial activity against Escherichia coli K99 assessed as cuminaldehyde MIC by CLSI based broth microdilution method; format: functional
Staphylococcus aureus [28] = test: Synergistic antimicrobial activity against Staphylococcus aureus 43300 assessed as fractional inhibitory concentration index in presence of carvacrol by checkerboard broth microdilution assay; format: functional
[29] = Synergistic antimicrobial activity against Salmonella enterica subsp. enterica serovar Pullorum 7913 assessed as fractional inhibitory concentration index in presence of perillaldehyde by checkerboard broth microdilution assay; format: functional
[30] = tested on: Staphylococcus epidermidis; test: Antimicrobial activity against Staphylococcus epidermidis ATCC 12228 assessed as cuminaldehyde MIC by CLSI based broth microdilution method; format: functional
Staphylococcus aureus [31] = test: Antimicrobial activity against Staphylococcus aureus ATCC 25923 assessed as reduction in microbial growth in presence of cuminaldehyde by CLSI based broth microdilution method; format: functional
Salmonella typhimurium [32] = test: Synergistic antimicrobial activity against Salmonella typhimurium 14028 assessed as fractional inhibitory concentration index in presence of citral by checkerboard broth microdilution assay; format: functional, Salmonella enterica subsp. enterica serovar Typhimurium
Salmonella typhimurium [33] = test: Antimicrobial activity against Salmonella typhimurium ATCC 14028 assessed as reduction in microbial growth by CLSI based broth microdilution method; format: functional, Salmonella enterica subsp. enterica serovar Typhimurium; details: Salmonella enterica
Escherichia coli [34] = test: Synergistic antimicrobial activity against Escherichia coli UB 1005 assessed as fractional inhibitory concentration by checkerboard broth microdilution assay; format: functional
[35] = Synergistic antimicrobial activity against Salmonella enterica subsp. enterica serovar Pullorum 7913 assessed as fractional inhibitory concentration index in presence of carvacrol by checkerboard broth microdilution assay; format: functional
Escherichia coli [36] = test: Synergistic antimicrobial activity against Escherichia coli 078 assessed as fractional inhibitory concentration index in presence of cuminaldehyde by checkerboard broth microdilution assay; format: functional, 78
Escherichia coli [37] = test: Antimicrobial activity against Escherichia coli UB 1005 assessed as reduction in microbial growth in presence of cuminaldehyde by CLSI based broth microdilution method; format: functional
Pseudomonas aeruginosa [38] = test: Synergistic antimicrobial activity against Pseudomonas aeruginosa 27853 assessed as fractional inhibitory concentration index in presence of citral by checkerboard broth microdilution assay; format: functional
Salmonella typhimurium [39] = test: Synergistic antimicrobial activity against Salmonella typhimurium 7731 assessed as fractional inhibitory concentration index in presence of citral by checkerboard broth microdilution assay; format: functional, Salmonella enterica subsp. enterica serovar Typhimurium
[40] = Antimicrobial activity against Salmonella enterica subsp. enterica serovar Pullorum ATCC 7913 assessed as reduction in microbial growth in presence of cuminaldehyde by CLSI based broth microdilution method; format: functional
[41] = tested on: Staphylococcus epidermidis; test: Synergistic antimicrobial activity against Staphylococcus epidermidis 12228 assessed as fractional inhibitory concentration index in presence of citronellal by checkerboard broth microdilution assay; format: functional
Escherichia coli [42] = test: Synergistic antimicrobial activity against Escherichia coli 25922 assessed as fractional inhibitory concentration index in presence of thymol by checkerboard broth microdilution assay; format: functional
[43] = tested on: Staphylococcus epidermidis; test: Synergistic antimicrobial activity against Staphylococcus epidermidis 12228 assessed as fractional inhibitory concentration index in presence of cuminaldehyde by checkerboard broth microdilution assay; format: functional

Structure (SMILES): CC[C@H](C)[C@H](NC(=O)[C@@H](NC(=O)[C@@H](CCCNC(=N)N)NC(=O)[C@H](C)NC(=O)[C@H](C)NC(=O)[C@@H](N)Cc1cccc2ccccc12)[C@@H](C)CC)C(=O)N[C@@H](CC(C)C)C(=O)N[C@H](CCCNC(=N)N)C(=O)N[C@@H](Cc1c[nH]c2ccccc12)C(=O)N[C@H](CCCNC(=N)N)C(=O)N[C@@H](Cc1ccccc1)C(=O)N[C@@H](CCCNC(=N)N)C(=O)O
- MIC (Salmonella typhimurium [1]): 0.5 µg/mL
- fractional inhibitory concentration index (FICI) (Escherichia coli [2]): 0.5
- fractional inhibitory concentration index (FICI) (Enterococcus faecalis [3]): 0.75
- fractional inhibitory concentration index (FICI) (Staphylococcus aureus [4]): 0.25
- fractional inhibitory concentration index (FICI) (Salmonella typhimurium [5]): 0.313
- fractional inhibitory concentration index (FICI) (Escherichia coli [6]): 0.375
- fractional inhibitory concentration index (FICI) (Enterococcus faecalis [7]): 0.313
- FIC (Staphylococcus aureus [8]): 0.25
- MIC (Enterococcus faecalis [9]): 1 µg/mL
- MIC (Escherichia coli [10]): 2 µg/mL
- fractional inhibitory concentration index (FICI) (Salmonella typhimurium [11]): 0.5
- MIC (Staphylococcus aureus [12]): 16 µg/mL
- fractional inhibitory concentration index (FICI) (Salmonella typhimurium [13]): 0.254
- fractional inhibitory concentration index (FICI) (Escherichia coli [14]): 0.125
- fractional inhibitory concentration index (FICI) (Escherichia coli [15]): 0.5
- MIC [16]: 4 µg/mL
- fractional inhibitory concentration index (FICI) (Staphylococcus aureus [17]): 0.625
- MIC (Escherichia coli [18]): 2 µg/mL
- FIC [19]: 0.25
- fractional inhibitory concentration index (FICI) (Pseudomonas aeruginosa [20]): 0.141
- MIC (Escherichia coli [21]): 16 µg/mL
- fractional inhibitory concentration index (FICI) (Staphylococcus aureus [22]): 0.25
- MIC (Salmonella typhimurium [23]): 8 µg/mL
- fractional inhibitory concentration index (FICI) (Escherichia coli [24]): 0.257
- fractional inhibitory concentration index (FICI) (Pseudomonas aeruginosa [25]): 0.25
- MIC [26]: 4 µg/mL
- MIC (Escherichia coli [27]): 1020 µg/mL
- fractional inhibitory concentration index (FICI) (Staphylococcus aureus [28]): 0.75
- fractional inhibitory concentration index (FICI) [29]: 0.375
- MIC [30]: 256 µg/mL
- MIC (Staphylococcus aureus [31]): 8 µg/mL
- fractional inhibitory concentration index (FICI) (Salmonella typhimurium [32]): 0.141
- MIC (Salmonella typhimurium [33]): 4 µg/mL
- FIC (Escherichia coli [34]): 0.125
- fractional inhibitory concentration index (FICI) [35]: 0.625
- fractional inhibitory concentration index (FICI) (Escherichia coli [36]): 0.125
- MIC (Escherichia coli [37]): 0.5 µg/mL
- fractional inhibitory concentration index (FICI) (Pseudomonas aeruginosa [38]): 0.141
- fractional inhibitory concentration index (FICI) (Salmonella typhimurium [39]): 0.141
- MIC [40]: 0.5 µg/mL
- fractional inhibitory concentration index (FICI) [41]: 0.25
- fractional inhibitory concentration index (FICI) (Escherichia coli [42]): 0.313
- fractional inhibitory concentration index (FICI) [43]: 0.375
